According to patent US20150190421A1, “POLOXAMERS FOR THE IMPROVEMENT OF RESPIRATORY FUNCTION” (PHRIXUS PHARMACEUTICALS, INC., priority 2012, published 2015):
“Also recorded” adds a separate entry of the source. Marks after values point to notes of the source that are not given here.

Assays:
[1] = test system: mdx mouse model of Duchenne Muscular Dystrophy; assay: Whole Body Plethysmography respiration monitoring, mdx mice, 22 weeks daily s.q. dosing; type: in vivo
Procedure: Animals. Male C57BL/10SnJ, hereafter referred to as wild-type (WT), and male mdx C57B1/10ScSn-Dmdmdx mice were used in the study. All protocols were approved by the University of Michigan (UM) UCUCA and all studies were performed in facilities run by the University of Michigan Unit of Laboratory Animal Medicine. […] Mice were purchased from Jackson Laboratories and aged in UM facilities. All ages given are ±2 weeks. Mice were randomized into groups upon receipt from Jackson Laboratories in order to minimize the need for additional cages. […] All compounds were administered subcutaneously.
Respiration was monitored using a Buxco Whole Body Plethysmography (WBP) monitoring chambers for mouse Cat. No. PLY4211 (Buxco Research Systems, Wilmington, N.C.) according to the manufacturer's instructions. In this protocol animals are unrestrained and un-anesthetized. Monitoring was performed in the room in which the animals were housed. The mice were monitored for 2 months prior to initiation of treatment to acclimate the mice to the procedure and establish baseline respiratory parameters done with the last weeks reading prior to initiation of dosing. Mice were randomized into groups based on tidal volume measurements. Upon initiation of dosing, mice were monitored every 2 weeks. Mice were placed in monitoring chambers and allowed to acclimate for 15 minutes prior to recording respiratory parameters. Respiration was then monitored for 10 minutes. Each mouse was monitored in the same chamber for each reading throughout the study to minimize variability.
During acclimation and measurements, the room door was shut and technician movement and room noise was kept to a minimum to allow for complete acclimation. […] Chambers were wiped clean between animals. Data was monitored and collected using FinePoint software (Cat. No. SFT4000) purchased from Buxco Research Systems (Wilmington, N.C.). […] Comparisons between groups of daily, every other day or weekly dosed animals were done by one-way ANOVA using the Neumann-Keuls post-hoc test. Significance was P<0.05. N=10-12 animals per group.
Abbreviations used include the following (units): F, respiration rate (breaths/minute), TV, tidal volume, (ml); TV/BWT, ratio of tidal volume to body weight, (mL/kg); MV, minute volume, (mL/min); Penh, enhanced pause, (no units); Rpef, the ratio of the time from start of expiration to peak expiratory flow to Te (no units); PIF, peak inspiratory flow, (mL sec); PEF, peak expiratory flow, (mL/sec); Te, expiratory time (sec); Ti, inspiratory time, (sec); Tr, relaxation time, (sec).
Respiration was monitored every 2 weeks by WBP.

[2] = test system: diaphragm muscle of mdx mice; assay: Diaphragm histology (centralized nuclei, fiber size and density, fibrosis), mdx mice; type: in vivo, mouse; conditions: prednisone 1 mg/kg QD s.q., 22 weeks
Procedure: Analysis of centralized nuclei. One marker of degeneration is the amount of compensatory regeneration occurring within the muscle. Since newly regenerating fibers have centrally located nuclei, the percentage of fibers with centralized nuclei (CN) from the diaphragm of each animal was determined (FIG. 2A).
Analysis of fiber size and density. The cross-sectional area of regenerating or recently regenerated fibers is expected to be smaller than that of mature muscle fibers. The cross sectional area of approximately 50 muscle fibers was measured from each mouse (600 fibers/group).
Analysis of fibrosis. Fibrosis was measured as the percentage of […] area/total area in Masson's trichrome stained sections.

[3] = Table 3, prednisone 1 mg/kg daily, 22 wks, mean ± S.D.
[4] = prednisone 1 mg/kg QD s.q., 22 weeks, mean ± S.D.

SMILES: C[C@]12C=CC(=O)C=C1CC[C@@H]1[C@@H]2C(=O)C[C@@]2(C)[C@H]1CC[C@]2(O)C(=O)CO [Prednisone, prednisone]
- TV, 22 wks [1, 3]: 0.332 ± 0.021 mL
- TV/BW, 22 wks [1, 3]: 9.9 ± 1.2 mL/kg
- increase in TV/BW compared with mdx saline (cause) ([1]; prednisone 1 mg/kg QD s.q., 22 weeks): due to a loss of body weight and not due to improvement in TV
- F (respiration rate) [1, 4]: 328 ± 30 breaths/min
- MV (minute volume) [1, 4]: 107 ± 11^b ml/min
- PEF (peak expiratory flow) [1, 4]: 4.2 ± 0.4^b mL/sec
- PIF (peak inspiratory flow) [1, 4]: 8.3 ± 0.8^c mL/sec
- Penh (enhanced pause) [1, 4]: 0.393 ± 0.080
- Rpef [1, 4]: 0.496 ± 0.085
- TV (tidal volume) [1, 4]: 0.332 ± 0.021^c mL
- Ti (inspiratory time) [1, 4]: 0.068 ± 0.006 s
- Tr (relaxation time) [1, 4]: 0.094 ± 0.018 s
- percentage of fibers with centralized nuclei (CN), diaphragm [2]: nearly the same percentage of fibers with CN as the mdx saline group; also recorded: higher percentage of muscle fibers in the regeneration process than in the P-188 treated groups
